Test results reported in patent US9248130B2, “Methods and compositions for treating thyroid-related medical conditions with reduced folates” (priority 2009, dated 2016).

Tests used:
Type in all cases: in vivo, human
[1] = Cerebrospinal folate levels in patient with cerebrospinal folate deficiency (case report); settings: patient Example 2; folinic acid 5 mg twice per day; within approximately four months; rose from 32 L; preferred range 40-128
Method: Example 1 was tested for cerebrospinal folate deficiency approximately four months after Example 2's testing. […] Studies have shown that the earlier the anemias associated with cerebrospinal folate deficiency are addressed, the better the adversely impacted individual can overcome more long-term effects of the associated folate deficiency.
After Example 2's diagnosis, Example 2 was placed on 5-methyltetrahydrofolate in the form of folinic acid (5 mg twice per day).

[2] = Physical, behavioral and social skills of patient with cerebrospinal folate deficiency (case report); settings: patient Example 2; after treatment
[3] = Hematological response (reticulocytes) in hypothyroid infant patient (case report); settings: patient Example 1; additional nutritional supplement containing 2 mcg of vitamin B12
Excerpt: Example 1 and Example 2 received different nutritional supplementation with respect to vitamin B12. Although Example 2 did receive the same infant milk formula that Example 1 received, which infant milk formula contained vitamin B12, Example 2 received less of the infant milk formula than Example 1, and Example 2 received in lieu of the infant milk formula more of the breast milk from the hypothyroid […]. Example 1 also received an additional multivitamin nutritional supplement that included 2 mcg of vitamin B12.

Row | Molecule | cerebrospinal folate levels [1] | physical, behavioral and social skills [2] | hematological response: reticulocytes [3]
1 | Nc1nc2c(c(=O)[nH]1)N(C=O)C(CNc1ccc(C(=O)N[C@@H](CCC(=O)O)C(=O)O)cc1)CN2 (stereo partly drawn) [folinic acid, 6(R,S)-5-formyltetrahydrofolate] | approximately 88 | showed improvement | –
2 | cobalamin [vitamin B12] | – | – | moving from below normal to normal
